From BindingDB's records for patent US11440904 (2022) come the findings set out here.

In the assay the target is Tyrosine-protein kinase BTK (Homo sapiens, UniProt Q06187).
Sequence of Tyrosine-protein kinase BTK (Q06187 whole entry): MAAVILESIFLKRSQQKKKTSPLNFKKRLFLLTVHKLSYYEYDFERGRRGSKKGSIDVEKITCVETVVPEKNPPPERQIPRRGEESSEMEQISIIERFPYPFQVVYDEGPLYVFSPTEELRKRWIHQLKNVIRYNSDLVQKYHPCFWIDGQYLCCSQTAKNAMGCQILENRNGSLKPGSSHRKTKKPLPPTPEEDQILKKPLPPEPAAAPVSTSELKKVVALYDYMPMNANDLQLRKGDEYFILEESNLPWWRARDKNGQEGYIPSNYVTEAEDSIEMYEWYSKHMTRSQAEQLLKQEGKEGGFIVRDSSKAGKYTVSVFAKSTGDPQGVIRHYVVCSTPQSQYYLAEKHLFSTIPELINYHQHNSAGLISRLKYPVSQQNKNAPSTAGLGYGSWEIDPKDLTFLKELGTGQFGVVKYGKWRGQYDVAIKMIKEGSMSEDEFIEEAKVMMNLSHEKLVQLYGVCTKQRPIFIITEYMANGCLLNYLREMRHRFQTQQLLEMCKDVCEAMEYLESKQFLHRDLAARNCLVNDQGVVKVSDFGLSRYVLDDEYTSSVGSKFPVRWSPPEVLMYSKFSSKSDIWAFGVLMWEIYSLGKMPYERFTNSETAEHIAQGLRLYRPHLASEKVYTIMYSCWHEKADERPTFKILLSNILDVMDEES

Protocol: Then, Kinase assays were performed using the HotSpot assay platform.Briefly, specific kinase/substrate pairs along with required cofactors were prepared in reaction buffer; 20 mM Hepes pH 7.5, 10 mM MgCl2, 1 mM EGTA, 0.02% Brij35, 0.02 mg/ml BSA, 0.1 mM Na3VO4, 2 mM DTT, 1% DMSO. Compounds were delivered into the reaction, followed about 20 minutes later by addition of a mixture of ATP (Sigma, St. Louis Mo.) and 33P ATP (Perkin Elmer, Waltham Mass.) to a final concentration of 10 μM.Reactions were carried out at room temperature for 120 min, followed by spotting of the reactions onto P81 ion exchange filter paper (Whatman Inc., Piscataway, N.J.). Unbound phosphate was removed by extensive washing of filters in 0.75% phosphoric acid. […] IC50 values and curve fits were obtained using Prism (GraphPad Software).

In general, IC50 refers to the concentration needed to halve the response being measured. A high value points to a need for much substance. In turn, `C=CC(=O)Nc1ccccc1Nc1nc(Nc2ccc(OCCCOC3(CC)OCC(C)(C)CO3)cc2)ncc1F` [US11440904, Compound 9] returned an IC50 above 100 nM.
